Source: patent US9381273B2, “Scaffolds with oxygen carriers, and their use in tissue regeneration” (Yissum Research Development Company of the Hebrew …, priority 2008, dated 2016)

Assays:
C3H/HeN mice [1] = assay: Ectopic bone formation by subcutaneous hydrogel implants with Tet-off BMP2 MSCs, micro CT and histology; details: for bone volume of ectopic bone: SC implant, mean±standard error
Experimental: Ectopic implantations—At near confluency, Tet-off BMP2 cells or Tet-off BMP2 Luc/GFP cells were trypsinized and counted using the trypan blue exclusion method. Aliquots of cells (one million Tet-off BMP2 cells or 3 million Tet-off BMP2 Luc/GFP cells) were resuspended in 50111 of fibrin or silk gel. Five, 10 or 20% [weight per volume (w/v)] Heptacosafluorotributylamine (Perfluorotributylamine, PFTBA, Sigma catalogue number H5262; Sigma-Aldrich, St Louis, Mo., USA) was added to the hydrogel just before implantations.
The cell-hydrogel mixture was injected subcutaneously in 8 weeks old female C3H/HeN mice, as follows: mice were anesthetized with a mixture of xylazine and ketamine (0.15% xylazine and 0.85% ketamine), which was injected intraperitoneally (i.p.) at 1 μl/g body weight. The area of injection was shaved and cleaned using 70% ethanol. Using 27G tuberculin syringe the cells-gel mixture was injected subcutaneously. Each mouse received 3 or 4 implants, consistent of 50 μl hydrogel in which cells and PFTBA were mixed. Mice where sacrificed after two weeks, and implants were harvested and fixed in 4% formalin.
Analysis of bone formation using micro CT imaging—In order to quantify bone formation in the ectopic implants, a high-resolution μCT system, Desktop μCT 40 (Scanco Medical A G, Bassersdorf, Switzerland) was used. Micro-tomographic slices were acquired at 1000 projections and reconstructed at a spatial nominal resolution of 12 μm. A constrained 3-D Gaussian filter (σ=0.8 and support=1) was used to partly suppress the noise in the volumes. The mineralized tissue was segmented from the hydrogel using a global thresholding procedure (Muller, R., and Ruegsegger, P. 1997, Stud Health Technol Inform 40, 61-79). In addition to the visual assessment of structural images, morphometric indices were determined from the microtomographic datasets using direct 3D morphometry (Hildebrand, T., 1999, J Bone Miner Res 14, 1167-1174). […] The following morphometric indices were determined for the newly formed bone: (i) volume of bone tissue; (ii) bone mineral density; (iii) trabecular thickness; (iv) anisotropy; (v) bone volume density and (vi) trabecular separation.
Histological analysis of bone formation—Harvested ectopic implants and regenerated limbs were processed for histology and stained as described (Sheyn, Kimelman-Bleich et al. 2007). In short, samples were fixed in 70% ethanol, passed through a graded series of ethanols, and embedded in paraffin. Sections 5-8 μm thick were cut from each paraffin block using a motorized microtome (Leica Microsystems, Wetzlar, Germany). Masson trichrom staining was performed in order to evaluate the histomorphology of the mineralized tissue.

C3H/HeN mice [2] = assay: Cell-mediated posterior spinal fusion, micro CT; assay type: in vivo; details: 10% PFTBA
osteocalcin = assay: Host osteocalcin gene expression in vivo, BLI in OC/Luc transgenic mice; design: species or system OC/Luc Tg mice; details: fibrin gel with MSCs, 5 or 10% PFTBA pooled
From the text: Osteocalcin gene expression in vivo—In order to analyze the effect of PFTBA supplementation on osteocalcin gene expression in vivo, transgenic mice (Oc-Luc), which harbor the Luc gene under the control of the osteogenic tissue-specific promoter, osteocalcin (Bar, Zilberman et al. 2003) were utilized. In order to monitor Luc activity in real-time a quantitative, the BLI system with the non-invasive cooled charge-coupled device (CCCD) camera was used. In this model, osteogenic activity in the transgenic mice was reported by Luc expression, which is activated by the osteocalcin promoter. This activity is detected by the CCCD as an emitted light following an injection of luciferin. The result values were normalized to constitutive tail expression of Luc, as previously described (Bar, Zilberman et al. 2003), so that the different mice that express the transgene with different intensities could be compared. In this experiment, 1×10^6 tet-off BMP2 cells in fibrin gel supplemented with 5 or 10% PFTBA, or not supplemented at all were implanted.

[3] = tested on: tet-off BMP2 Luc/GFP cells; assay: Cell survival in ectopic implants, bioluminescence imaging (BLI); assay type: in vivo, C3H/HeN mice; details: fibrin gel, 5% and 10% PFTBA groups pooled
From the text: Imaging of cell viability in vivo—Tet-off BMP2 Luc/GFP Cell viability in the ectopic implants was quantified using the BLI system as was described (Bar, Zilberman et al. 2003). This CCCD tracking system (Roper Chemiluminescence Imaging System) consists of a CCCD camera (model LN/CCD-1300EB; Roper Scientific Inc.) equipped with an ST-133 controller and a 50-mm Nikon lens (Nikon Inc.). In this system, a pseudocolor image represents light intensity (blue signifies least intense and red most intense). The integrated light is the result of 2-minute exposure and acquisition. This CCCD camera converts photons to electrons with an efficiency of approximately 90% in the wavelength emission range of luciferin and converts approximately 1.8 electrons per count. Thus, every count represents 2 photons. The measurement is a total integrated signal of a constant exposure interval. […] The measurement can be verified by using a progressively larger region of interest (ROI) and by subtracting background readings. An increase in the ROI has no appreciable effect on the total intensity that is measured. Before light detection, the mice were anesthetized with a ketamine-xylazine mixture, which is injected intraperitoneally at 1 μl/g body weight. […]

tet-off BMP-2 MSCs = assay: LDH release cytotoxicity assay of MSCs in fibrin gel in vitro; assay type: cell-based; details: 10% PFTBA (w/v) in 100 μl fibrin gel, 10^6 MSCs, days 1 and 3 after cell seeding
Experimental: Effect of PFTBA on cell survival and oxygen levels—10^6 tet-off BMP-2 MSCs were suspended in 100 μl fibrin gel and cultured in 35-mm plates. In these conditions, the inner region of the hydrogel is hypoxic (data not shown). The experimental groups included hydrogels which included 0% or 10% PFTBA (w/v). Cell death was measured using the LDH release cytotoxicity assay on Days 1, 3, 7 and 14. […] Note that cytotoxicity was reduced over time, probably since nutrients and oxygen supply were more available to the remaining surviving cells. In a separate experiment, oxygen levels were measured in the center of MSC-loaded gels ([…] in 300 μl fibrin gel) using the Microx TX3 oxygen sensor (Presens, Precision Sensing GmbH, Regensburg, Germany).

C3H/HeN mice [4] = assay: Radius bone defect regeneration, micro CT; details: 2.5-mm radius defect, fibrin gel with MSCs, 14 days
Experimental: Briefly, C3H/HeN female mice aged 6-8 weeks (n=16) were anesthetized using ketamine-xylazine mixture injected intraperitoneal. The skin of the forelimb was swabbed with isopropyl alcohol (70%). The skin was cut and 2.5 mm-long defect was created in the radius bone. Approximately one million Tet-off BMP2 cells were suspended in fibrin gel (Baxter) and supplemented with 5 or 10% PFTBA (Sigma, n=5 for each group) or not supplemented at all (n=6). The cell-gel mixture was incubated for 5 minutes in room temperature (RT) under sterile conditions to allow the fibrin to gel, and was subsequently implanted into the defect site. The mice were sacrificed 2 weeks post-transplantation; limbs were harvested and scanned using the μCT in order to analyze bone formation.
A quantitative morphometric analysis of the bone formation in nonunion fractures, was undertaken using μCT as previously described (Tai, K., et al., 2008, Tissue Eng Part A 14, 1709-1720). Mouse forelimbs, including ulna and radius, as well as native muscle and soft tissue were scanned using a Desktop Cone-Beam Micro-CT Scanner (μCT 40; Scanco Medical AG, Bruttisellen, Switzerland) at a spatial nominal resolution of 20 mm. A constrained 3D Gaussian filter (sigma=0.8 and support=1) was used to partly suppress the noise in the volumes. The bone tissue was segmented from marrow and soft tissue using a global thresholding procedure. In the nonunion fracture site, the evaluation was done only in the central 2-mm of the bone defect, including only newly formed bone. Morphometric indices were determined as described earlier.

[5] = fibrin gel with MSCs, 10% PFTBA (w/v), two weeks

For `FC(F)(F)C(F)(F)C(F)(F)C(F)(F)N(C(F)(F)C(F)(F)C(F)(F)C(F)(F)F)C(F)(F)C(F)(F)C(F)(F)C(F)(F)F` [PFTBA, Heptacosafluorotributylamine], the “bone volume of ectopic bone” value (C3H/HeN mice [1]; fibrin gel with MSCs, 5% PFTBA (w/v), two weeks) was 0.98±0.26 mm^3, the “bone volume of ectopic bone” value (C3H/HeN mice [1]; [5]) was 1.77±0.47 mm^3 and the “increase in bone volume compared with the 0% PFTBA group” value (C3H/HeN mice [1]; [5]) was 2.5 fold. For the same compound, the “histology of implants (bone, hypertrophic cartilage, bone marrow)” value (C3H/HeN mice [1]; fibrin gel, 0%, 5%, 10% PFTBA, day 14, Masson trichrom) was “No histological difference was found”, the “volume of the ectopic bone versus no PFTBA group” value (C3H/HeN mice [1]; two weeks, 1-tailed T-test p=0.033) was “significant differences were found” and the “average connectivity density elevation versus no PFTBA group” value (C3H/HeN mice [2]; week 3 post-implantation) was 1.29 fold. The “bone volume density elevation versus no PFTBA group” value (C3H/HeN mice [2]; week 3 post-implantation) was 1.25 fold, the “bone volume difference versus no PFTBA group” value (C3H/HeN mice [2]; week 3 post-implantation) was “this difference was not noted” and the “trabecular number increase versus no PFTBA group” value (C3H/HeN mice [2]; week 3 post-implantation) was 1.44 fold. The “bone volume of spinal fusion mass” value (C3H/HeN mice [2]; fibrin gel with MSCs, lumbar paravertebral muscle, 6 weeks post implantation) was 70.71±2.7 mm^3, the osteocalcin activity (osteocalcin; day 5 post-implantation) was 2.76±0.48 relative light units (RLU; implant/tail) and the “osteocalcin activity versus no PFTBA group” value (osteocalcin; day 7 and 14) was “no significant difference was noted”. For the same compound, the “luciferase activity (cell survival)” value ([3]; day 3 post implantation) was 21,519±2,047 integrated light units (ILU), the “luciferase activity (cell survival) versus no-PFTBA group” value ([3]; day 7 post implantation) was “no significant difference between the groups was found” and the “cell death (LDH release cytotoxicity) versus 0% PFTBA” value (tet-off BMP-2 MSCs) was “significantly fewer cells died”. The “volume of bone formed versus no PFTBA” value (C3H/HeN mice [4]; 5 or 10% PFTBA (w/v)) was “no significant difference”, the “BMD elevation of the formed bone, supplemented versus non-supplemented” value (C3H/HeN mice [4]; 5 or 10% PFTBA) was 1.1-1.2 and the “trabecular thickness elevation versus no-PFTBA group” value (C3H/HeN mice [4]; 5 or 10% PFTBA) was 1.3 fold.
